Experimental data: patent US8309790B2, “Animal models for demyelination disorders” (University of Chicago, priority 2005, dated 2012)

What was measured:
[1] = tested on: corpus callosum of double transgenic mice treated with cuprizone; experiment: Cuprizone-induced demyelination and remyelination in GFAP/tTA; TRE/IFN-γ double transgenic mice; assay type: in vivo
Method: The effects of IFN-γ on demyelination were evaluated in a cuprizone animal model using transgenic mice that allow for temporally regulated delivery of IFN-γ using the tetracycline controllable system (Lin, et al. (2004) J. Neurosci. 24: 10074-10083). The transgenic mice were generated by mating line 110 GFAP/tTA mice on the C57BL/6 background with line 184 TRE/IFN-γ on the C57BL/6 background to produce GFAP/tTA; TRE/IFN-γ double transgenic mice (Lin, et al. (2004) J. Neurosci. 24: 10074-10083). Transcriptional activation of the TRE/IFN-γ transgene by tTA was repressed in the control (DOX+) mice by adding 0.05 mg/ml doxycycline to the drinking water which was provided ad libitum from the day of conception. The DOX+ double transgenic mice were GFAP/tTA; TRE/IFN-γdouble transgenic animals fed cuprizone chow and never released from the doxycycline solution. DOX− double transgenic mice were GFAP/tTA; TRE/IFN-γdouble transgenic animals fed cuprizone chow and released from doxycycline to induce expression of IFN-γ.
Demyelination was induced in 6-week-old DOX+ and DOX− male mice by feeding the mice a diet of milled mouse chow containing 0.2% cuprizone (Sigma-Aldrich, St. Louis, […].) for up to 6 weeks. Subsequently, both groups of mice were returned to a normal diet for up to 3 weeks to allow remyelination to occur. All animal procedures were conducted in complete compliance with the NIH Guide for the Care and Use of Laboratory Animals and were approved by the Institutional Animal Care and Use Committee of The University of Chicago.
The effects of INF-γ and MBP on demyelination were evaluated as the level of INF-γ and MHC-1, the loss of oligodendrocytes, and the expression of myelin genes.
The expression of IFN-γ in these animals was examined by Enzyme-Linked Immunosorbent Assay (ELISA) analysis as follows. Spinal cord and forebrains were removed, rinsed in ice cold PBS, and immediately homogenized in five volumes of PBS with complete protease cocktail (Roche, Indianapolis, Ind.) using a motorized homogenizer. After incubation on ice for 5 min the extracts were cleared by centrifugation at 14000 rpm for 10 min. The protein content of each extract was determined by the DC protein assay (Bio-Rad, Hercules, Calif.). […]
The effect of INF-γ on the population of oligodendrocytes was evaluated by immunohistochemical analysis of oligodendrocytes using an anti-CC1 antibody (APC7, 1:50; EMD Biosciences, Inc., La Jolla, Calif.) Immunohistochemistry was performed on brain sections obtained from mice that were first anesthetized mice and perfused through the left cardiac ventricle with 4% paraformaldehyde in 0.1 M PBS. […]

[2] = tested on: oligodendrocytes in adult mice; experiment: IFN-γ expression in the CNS of adult double transgenic mice (released from doxycycline at 4 weeks of age); assay type: in vivo
Source text: Compared with the actively myelinating oligodendrocytes of young growing animals, oligodendrocytes in adult mice produce lower levels of membrane proteins and lipids, just enough to maintain homeostasis in the myelin structure (Morell, et al. (1999) Basic Neurochemistry: Molecular, Cellular, and Medical Aspects (Philadelphia, Pa.: Lippincott-Raven Publishers): 69-93). The ER of oligodendrocytes in adult animals may thus have more spare capacity to process increased protein load and as such may be less sensitive to disruptions of the protein secretory pathway. To examine this possibility, double transgenic mice were allowed to develop to maturity, at which time IFN-γ expression in the CNS was initiated.

[3] = tested on: Hippocampal organotypic cultures; experiment: Hippocampal organotypic cultures (HOC), in vitro model of myelination, MBP Western blot; assay type: cell-based; conditions: 7 days of 100 U/ml IFN-γ exposure
Method: Our hypothesis is that the integrated stress response has the potential to protect oligodendrocytes from the harmful effects of the inflammatory response in patients with multiple sclerosis (MS). […] To test whether agents that prolong eIF2α phosphorylation might provide protection to oligodendrocytes against detrimental inflammatory factors, the effect of Salubrinol (Sal) in the presence of the immune cytokine IFN-γ was tested in an in vitro model of myelination.
HOCs, were prepared and maintained as described previously (Kunkler and Kraig (1997) J Cereb Blood Flow Metab. 17:26-43), and were maintained in vitro for 7 days before use. SAL at various concentrations was combined with 100 U/ml IFN-γ and added to the HOC cultures for 7 days. […] After 7 days of 100 U/ml IFN-γ exposure, the levels of MBP decreased approximately 80% in the HOCs (FIG. 29).

interferon-γ [IFN-γ]
remyelinated axons ([1]; DOX− mice, corpus callosum, 8 weeks, EM): 26.9%±7%
expression of myelin genes MBP, PLP and CGT ([1]; DOX− mice, corpus callosum, week 6 and week 8): significantly depressed
expression of MHC class I (MHC-I) in the corpus callosum, real-time PCR ([1]; DOX− mice, during remyelination): significant increase
effect on the initial pathological processes induced by cuprizone exposure ([1]; DOX− vs DOX+ mice, up to 5 weeks cuprizone): does not have a significant effect
BIP and CHOP in the cerebellum ([2]; 10-week-old mice released from doxycycline at 4 weeks of age): modest induction
oligodendrocyte survival ([2]; adult mice, wild-type or PERK+/− background): did not affect
decrease of the levels of MBP [3]: approximately 80%
